The text below walks through data of patent US9095613B2, “Photosensitizer-metal nanoparticle charge complex and composition containing the complex for photodynamic therapy or diagnosis” (NATIONAL CANCER CENTER, priority 2009, dated 2015).

One series deals with skin photosensitivity. The note with it: patient after administration; cited from earlier work.
The conditions of series [1]: at 630 nm; cited from earlier work.
The test system of series [2] is SCC7 xenograft tumor. The series can be described thus: Near-infrared fluorescence imaging of tumor in xenograft model. The series is classed as in vivo, Balb/c-nu mice. The note with it: 1 mg AlPcS4 equivalent/kg, tail vein, 24 hours after injection. The method, then:
(§1) 2×10^6 cells per 100 μl of the SCC7 cell line were injected subcutaneously to hind legs of Balb/c-nu mice of 19 to 22 g to create xenograft tumor models. When a tumor was grown to a size of about […], 29 experimental animals were divided into three groups (Day 0) based on the tumor size. Among them, 6 mice were used for near-infrared fluorescence imaging using the photosensitizer, and the other 23 mice were used to observe an inhibitory effect on tumor growth through the photodynamic therapy. A volume of the tumor was calculated with an equation of height×length×width×0.5.
(§2) For each of the AlPcS4-treated group and the GNR/AlPcS4 complex-treated group, the drug (each of AlPcS4 and GNR/AlPcS4 complex prepared in Preparation Example 2-4) dissolved in PBS (6.7 mM, pH 7.4, NaCl 154 mM) was injected into a tail vein of a mouse at the dose of 1 mg AlPcS4 equivalent/kilogram body weight. […] To compare the near-infrared fluorescence image and the accumulated amount in the tumor of the injected photosensitizer, two mice were taken from each group after 24 hours from the treatment of the drug (Day 2), and therefrom fluorescence images of AlPcS4 were obtained using a near-infrared fluorescence image device (IVIS Lumina) (Cy5.5 channel; Ex. filter 615-665 nm, Em. Filter 695-770 nm).

For series [3] the following is noted: at 675 nm, known value; cited from earlier work.
The next series has as its system SCC7 cell line. The series can be described thus: Cell viability test after photodynamic therapy (CCK-8). Format: cell-based. To be noted: 5 μM AlPcS4 equivalent, 670 nm, 10 J/cm^2, after 24 hours. The method, then:
9000 cells of a SCC7 cell line per well were seeded in a 96 well plate, and cultured for 24 hours. After the AlPcS4 and the GNR/AlPcS4 complex prepared in Preparation Example 2-4 were diluted with a cell culture medium to have an equivalent concentration of 5 μM AlPcS4, 200 μl of the diluted solution per well was added and then maintained at 37° C. for 4 hours. For a control group, the same volume of cell culture medium was added to the plate. Afterwards, to remove the photosensitizer which was not taken up into the cell, the cells were washed with a cell culture medium twice, and then a fresh cell culture medium was added. The PDT-treated groups were irradiated with light at 670 nm using laser under conditions of a light dose density of 50 mW/cm^2 and light doses of 5 J/cm^2 and 10 J/cm^2. After 24 hours, cell viability was measured using a cell counting kit-8 (CCK-8, Dojindo Laboratories).

The subject of series [4] is SCC7 xenograft tumor. The series can be described thus: Inhibition of tumor growth by photodynamic therapy in xenograft model. The note with it: 1 mg AlPcS4 equivalent/kg i.v., 670 nm 60 J/cm^2. The series is classed as in vivo, Balb/c-nu mice. As to the method: as §1
as §2, with “nm). […]” for “nm).”

The subject of series [5] is SCC7 (Squamous cell Carcinoma) cell line. Kind of series: Quantitative analysis of uptake into cells (fluorescence of cell lysis solution). Format: cell-based. To be noted: 5 μM AlPcS4 equivalent, 4 hours. The method, then:
90000 cells of a SCC7 (Squamous cell Carcinoma) cell line per well were seeded in a 96 well plate and cultured for 24 hours. Afterwards, the AlPcS4 and the GNR/AlPcS4 complex prepared in Preparation Example 2-4 were diluted with a cell culture medium containing serum to have an equivalent concentration of 5 μM AlPcS4. […] of the diluted solution per well was added, and maintained at 37° C. for 4 hours. Subsequently, after the cell culture medium containing the photosensitizer was removed, the cells were washed three times, and then treated with 200 μl of 0.1% SDS/0.1M NaOH solution for 2 hours for cell lysis. Then, a fluorescence signal of the AlPcS4 generated from this solution was measured (Ex. 660 nm, Em. 690 nm).

Like-named read-outs stand apart in the source and are kept apart here.

For the molecule Photofrin, the “duration of side effect of skin photosensitivity” value in the series on skin photosensitivity was “more than 6 week”. Also, the molar absorption coefficient in series [1] is 1170 M⁻¹ cm⁻¹.
As for `C=Cc1c(C)c2cc3nc(c(CC(=O)N[C@@H](CC(=O)[O-])C(=O)[O-])c4nc(cc5[nH]c(cc1[nH]2)c(C)c5CC)C(C)=C4C(=O)[O-])[C@@H](CCC(=O)[O-])[C@@H]3C.[Na+].[Na+].[Na+].[Na+]` [Mono-L-aspartyl chlorine e6, mono-L-aspartyl chlorine e6], in the series on skin photosensitivity, the “duration of side effect of skin photosensitivity” value is reported as 1 week.
“Al(III) phthalocyanine chloride tetrasulfonic acid [AlPcS4]”: in the series with SCC7 xenograft tumor [2], the “average fluorescence signal in tumor” value is given as 7224 counts and the “tumor-to-background ratio of the AlPcS4 fluorescence” value came to 2.5. The molar absorption coefficient in series [3] is 170000 M⁻¹ cm⁻¹. Besides, the phototoxicity in the series on SCC7 cell line worked out at 64%. The “course of tumor size after photodynamic therapy” value in the series on SCC7 xenograft tumor [4] is on record as “temporarily decreased”. Also, in the series on SCC7 xenograft tumor [4] (fifth day), the “size of the tumor relative to control group” value was 67%. For the same molecule, in series [5], the “effect of increasing amount of serum (FBS) on uptake into cells” value is “greatly decreased”.
